Measurements: US10358449B2, “Xanthine derivative” (priority 2015, dated 2019)
Structures can show the parent of a compound that is named as a salt. Where two headings read alike, the source gives them in different places. Marks after values point to notes of the source that are not given here.

Experiments:
[1] = man, 5 mg/subject; cited from earlier work
[2] = CD-1 mouse, 5 mg/kg, oral administration; cited from earlier work
[3] = test system: obese mice (B6.Cg-Lepob/JNju); experiment: Glucose tolerance test of obese mice; format: in vivo, mouse; parameters: AUC0-120 min: unit not given beside the values
Protocol: (§1) 2. Experimental method: normal mice, obese mice and diabetic mice were used for studying glucose tolerance tests Experimental process of OGTT (Oral Glucose Tolerance Test): fasting for 6 hours before the test begins, 60 min after drug administration, glucose was administrated by gavage (drug concentration 0.6 mg/ml, administration volume 5 ml/kg) (2 g/kg glucose was administrated to diabetic mice; 2 g/kg glucose was administrated to obese mice; and 5 g/kg glucose was administrated to normal mice), blood glucose values at 0 min, 15 min, 30 min, 45 min, 60 min and 120 min are respectively determined after glucose administration, […]

[4] = test system: diabetic mice (B6.BKS(D)-Leprdb/JNju); experiment: Glucose tolerance test of diabetic mice (Table 5); format: in vivo, mouse; parameters: AUC0-120 min: unit not given beside the values
Protocol: as §1

normal mice (C57BL/6J) = experiment: Oral glucose tolerance test of normal mice; format: in vivo, mouse; parameters: AUC0-120 min: unit not given beside the values
Protocol: as §1

[5] = molecular target: humanized recombinant DPP-IV (Homo sapiens (Human), UniProt P27487); experiment: DPP-IV activity inhibition test in vitro (DPPIV-Glo luminescence); format: biochemical; settings: DPP-IV, Table 1; read-out: IC50
Sequence of humanized recombinant DPP-IV (P27487 whole entry): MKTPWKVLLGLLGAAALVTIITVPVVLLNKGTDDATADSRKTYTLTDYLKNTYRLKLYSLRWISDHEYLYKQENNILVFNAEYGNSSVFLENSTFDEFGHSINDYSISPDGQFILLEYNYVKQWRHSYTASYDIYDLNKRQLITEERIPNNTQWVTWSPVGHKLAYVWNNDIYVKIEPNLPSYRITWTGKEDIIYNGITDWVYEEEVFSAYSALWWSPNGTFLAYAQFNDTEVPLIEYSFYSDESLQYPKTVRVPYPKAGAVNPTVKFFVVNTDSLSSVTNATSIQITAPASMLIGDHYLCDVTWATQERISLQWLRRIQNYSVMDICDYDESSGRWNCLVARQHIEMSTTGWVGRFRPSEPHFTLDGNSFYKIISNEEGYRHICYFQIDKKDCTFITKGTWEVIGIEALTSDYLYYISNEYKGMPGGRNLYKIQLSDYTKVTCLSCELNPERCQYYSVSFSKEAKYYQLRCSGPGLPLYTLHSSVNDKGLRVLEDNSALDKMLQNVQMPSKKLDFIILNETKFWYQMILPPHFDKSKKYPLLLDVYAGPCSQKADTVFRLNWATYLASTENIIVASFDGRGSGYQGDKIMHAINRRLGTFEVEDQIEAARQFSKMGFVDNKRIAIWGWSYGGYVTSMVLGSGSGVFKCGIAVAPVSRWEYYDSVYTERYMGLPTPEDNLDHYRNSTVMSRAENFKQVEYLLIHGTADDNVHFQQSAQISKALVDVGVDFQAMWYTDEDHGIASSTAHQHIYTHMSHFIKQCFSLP
Protocol: (1) DPP-IV Activity Inhibition Tests In Vitro
DPP-IV could hydrolyze Gly-Pro-Aminoluciferin at room temperature to generate Aminoluciferin, which could produce “glow type” luminescent signals in a luciferase reaction system provided by a DPPIV-Glo™ protease test kit, and the strength of the luminescent signals was in direct proportion to the enzyme activity of DPP-IV.
2.1 humanized recombinant DPP-IV: SIGMA product, article number D3446-10UG.
2.2 DPPIV-Glo™ protease detection kit: Promega product, article number G8351.
3.2 Diluting dipeptidyl peptidase IV (Sigma) to 0.2 ng/ml solution with 10 mM Tris-HCl (pH 8.0), adding the samples to be detected in, per well 25 μl. […] Experimental Results

CC#CCn1c(N2CCC[C@@H](N)C2)nc2c1c(=O)n(Cc1nc(C)c3ccccc3n1)c(=O)n2C [Linagliptin, linagliptin, reference compound]
bioavailability (F) [1]: 30%
bioavailability (F) [2]: 18.4%
Blood glucose concentration 0 min ([3]; obese mice B6.Cg-Lepob/JNju, drug at -60 min (0.6 mg/ml, 5 ml/kg), 2 g/kg glucose at 0 min): 10.95 mmol/L
Blood glucose concentration 15 min ([3]; obese mice, 15 min after glucose): 31.73 mmol/L
Blood glucose concentration 30 min ([3]; obese mice, 30 min after glucose): 27.98 mmol/L
Blood glucose concentration 45 min ([3]; obese mice, 45 min after glucose): 20.50 mmol/L
Blood glucose concentration 60 min ([3]; obese mice, 60 min after glucose): 16.00* mmol/L
Blood glucose concentration 120 min ([3]; obese mice, 120 min after glucose): 11.50 mmol/L
AUC0-120 min ([3]; obese mice, blood glucose AUC): 2230
Blood glucose concentration 0 min ([4]; diabetic mice B6.BKS(D)-Leprdb/JNju, drug at -60 min (0.6 mg/ml, 5 ml/kg), 2 g/kg glucose at 0 min): 12.09 mmol/L
Blood glucose concentration 15 min ([4]; diabetic mice, 15 min after glucose): 29.98* mmol/L
Blood glucose concentration 30 min ([4]; diabetic mice, 30 min after glucose): 20.15*** mmol/L
Blood glucose concentration 45 min ([4]; diabetic mice, 45 min after glucose): 16.60*** mmol/L
Blood glucose concentration 60 min ([4]; diabetic mice, 60 min after glucose): 15.83** mmol/L
Blood glucose concentration 120 min ([4]; diabetic mice, 120 min after glucose): 10.05* mmol/L
AUC0-120 min ([4]; diabetic mice, blood glucose AUC): 1987**
Blood glucose concentration 0 min (normal mice (C57BL/6J); normal mice C57BL/6J, drug at -60 min (0.6 mg/ml, 5 ml/kg), 5 g/kg glucose at 0 min): 8.64* mmol/L
Blood glucose concentration 15 min (normal mice (C57BL/6J); normal mice, 15 min after glucose): 14.7*** mmol/L
Blood glucose concentration 30 min (normal mice (C57BL/6J); normal mice, 30 min after glucose): 10.5*** mmol/L
Blood glucose concentration 45 min (normal mice (C57BL/6J); normal mice, 45 min after glucose): 9.5*** mmol/L
Blood glucose concentration 60 min (normal mice (C57BL/6J); normal mice, 60 min after glucose): 10.14*** mmol/L
Blood glucose concentration 120 min (normal mice (C57BL/6J); normal mice, 120 min after glucose): 7.72 mmol/L
AUC0-120 min (normal mice (C57BL/6J); normal mice, blood glucose AUC): 1198***

CC#CCn1c(N2CCC[C@@H](N)C2)nc2c1c(=O)n(Cc1cccc(F)c1C#N)c(=O)n2C [Compound I-1, 1-[(6-fluorine-benzonitrile-2-yl)methyl]-3-methyl-7-(2-butyne-1-yl)-8-[(R)-3-amino-piperidine-1-yl]-xanthine]
IC50 [5]: 0.21 nM

CC#CCn1c(N2CCC[C@@H](N)C2)nc2c1c(=O)n(Cc1cc(F)c(F)cc1C#N)c(=O)n2C [Compound I-2, 1-[(4,5-difluoro-benzonitrile-2-yl)methyl]-3-methyl-7-(2-butyne-1-yl)-8-[(R)-3-amino-piperidine-1-yl]-xanthine]
IC50 [5]: 2.1 nM

CC#CCn1c(N2CCC[C@@H](N)C2)nc2c1c(=O)n(Cc1ncccc1C(=O)OC)c(=O)n2C [Compound I-4, 1-[(3-methyl formate-pyridine-2-yl)methyl]-3-methyl-7-(2-butyne-1-yl)-8-[(R)-3-amino-piperidine-1-yl]-xanthine]
IC50 [5]: 4.8 nM
